Measurements from PubChem BioAssay (NCI).
Values joined by “and” are separate entries in the source; they are usually repeats but may differ in a detail not shown here. Equal entries are not always repeated.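 48-hour exposure; five concentrations; linearly interpolated endpoints. GI50: concentration for 50% inhibition of growth. TGI is the concentration that stops growth completely.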

What was measured:
Test in all cases: growth of human tumour cells (NCI), 48 h
SN12C renal = test system: SN12C renal
SF-539 CNS = test system: SF-539 CNS
HL-60(TB) leukemia = test system: HL-60(TB) leukemia
KM12 colon = test system: KM12 colon
UACC-62 melanoma = test system: UACC-62 melanoma
OVCAR-5 ovarian = test system: OVCAR-5 ovarian
HCT-15 colon = test system: HCT-15 colon
MDA-MB-435 = test system: MDA-MB-435
ACHN renal = test system: ACHN renal
COLO 205 colon = test system: COLO 205 colon

SMILES	GI50 (SN12C renal)	TGI (SN12C renal)	GI50 (SF-539 CNS)	TGI (SF-539 CNS)	GI50 (HL-60(TB) leukemia)	TGI (HL-60(TB) leukemia)	GI50 (KM12 colon)	TGI (KM12 colon)	GI50 (UACC-62 melanoma)	TGI (UACC-62 melanoma)	GI50 (OVCAR-5 ovarian)	TGI (OVCAR-5 ovarian)	GI50 (HCT-15 colon)	TGI (HCT-15 colon)	GI50 (MDA-MB-435)	GI50 (ACHN renal)	TGI (ACHN renal)	GI50 (COLO 205 colon)	TGI (COLO 205 colon)	TGI (MDA-MB-435)
O=C(/C=C/c1ccc([N+](=O)[O-])o1)NNC(=O)c1cc2ccccc2cc1O	1.49 µM	> 100 µM	2.06 µM	7.52 µM	0.962 µM	> 100 µM	2.18 µM	> 23 µM	0.694 µM	2.26 µM	13 µM	> 100 µM	0.714 µM	2.91 µM	0.644 µM	0.688 µM	2.24 µM	1.92 µM	6.54 µM	–
COc1ccc(N=Cc2ccc(N(CCC#N)CCC#N)cc2)cc1	–	> 100 µM	–	78.7 µM	–	> 100 µM	–	> 100 µM	–	> 100 µM	–	> 100 µM	–	> 100 µM	–	–	> 100 µM	–	> 100 µM	> 100 µM
Cc1ccc2c(c1)sc(-c1ccc(N(C)C)cc1)[n+]2C	2.71 µM	42.8 µM	2.56 µM	14.1 µM	0.273 µM	10.5 µM	0.397 µM	14.6 µM	2.07 µM	15.5 µM	–	> 100 µM	18.8 µM	> 100 µM	0.879 µM	5.89 µM	> 100 µM	0.368 µM	1.44 µM	13 µM
COc1cccc2c(=O)c3c(sc12)c(NCCCN)nc1ccccc13	1.45 µM	2.85 µM	1.6 µM	2.97 µM	1.98 µM	3.94 µM	1.62 µM	3.21 µM	1.64 µM	3.05 µM	1.65 µM	3.01 µM	1.32 µM	2.7 µM	1.8 µM	1.32 µM	2.59 µM	–	–	3.34 µM
CC1(C)C(=O)/C(=C\c2ccco2)C[C@]2(C)[C@H]3CC=C4[C@@H]5C[C@](C)(C(=O)O)CC[C@]5(C)CC[C@@]4(C)[C@]3(C)CC[C@@H]12	7.64 µM	26 µM	13.2 µM	27.3 µM	6.78 µM	27.2 µM	5.88 µM	19.5 µM	6.49 µM	20.3 µM	15.6 µM	32.2 µM	5.26 µM	18.8 µM	12.1 µM	6.9 µM	21.1 µM	9.31 µM	25.5 µM	30.3 µM
COC1C(=O)CCC2(CO2)C1(O)C1(C)OC1CCC(C)C (stereo not drawn)	–	> 100 µM	–	> 100 µM	–	> 100 µM	–	> 100 µM	–	> 100 µM	–	> 100 µM	–	> 100 µM	–	–	> 100 µM	–	> 100 µM	> 100 µM
O=C1Cc2c(-c3ccccc3)cc(-c3cccc(Cl)c3)nc2-c2ccccc2N1	–	16.2 µM	–	> 29.9 µM	–	> 100 µM	–	> 75.3 µM	–	12.2 µM	–	30.3 µM	–	17.6 µM	–	1.15 µM	5.63 µM	–	> 58.3 µM	> 59.9 µM
CCN(CC)C(=S)SSC1CCCCC1	15.8 µM	31.2 µM	15.3 µM	31.7 µM	13.6 µM	47.2 µM	13 µM	28.8 µM	18 µM	42.8 µM	18.7 µM	32.7 µM	19.7 µM	46.4 µM	15 µM	16.6 µM	32 µM	–	–	33.1 µM
CN(C)CN1C(=O)S/C(=C2\C(=O)N(CN(C)C)c3ccccc32)C1=O	–	69.4 µM	–	> 100 µM	–	37.2 µM	–	> 100 µM	–	> 100 µM	–	> 100 µM	–	> 100 µM	–	–	> 100 µM	–	> 100 µM	> 100 µM
N#C/C(=C(\O)C(=O)O)c1ccc(-c2cccc3ccccc23)cc1	–	> 100 µM	–	> 100 µM	–	81.9 µM	–	> 100 µM	–	> 100 µM	–	> 100 µM	–	> 100 µM	–	–	> 100 µM	–	> 100 µM	> 100 µM
CCCCS(=N)(=O)CC[C@H](N)C(=O)O (stereo partly drawn)	> 10000 µM	> 10000 µM	> 10000 µM	5000 µM and > 10000 µM	32.9 µM	1270 µM and 224 µM	> 10000 µM	> 10000 µM	> 8090 µM	> 10000 µM	> 10000 µM	> 10000 µM	> 6960 µM	4940 µM and > 10000 µM	> 10000 µM	> 10000 µM	> 10000 µM	> 10000 µM	> 10000 µM	> 10000 µM
Nc1ccc2c(c1)[O][Sn]([c]1ccccc1)([c]1ccccc1)[O]C2=O	7.24 µM	20.4 µM	9.5 µM	18.8 µM	2.64 µM	10.4 µM	16.5 µM	33.5 µM	5.94 µM	16.3 µM	17.2 µM	31.1 µM	6.8 µM	17.9 µM	6.78 µM	11.9 µM	25.4 µM	6.58 µM	13.2 µM	17.3 µM
O=C1OCC2=Nc3cccc4cccc(c34)N12	–	> 100 µM	–	> 100 µM	–	> 100 µM	–	> 100 µM	–	> 100 µM	–	–	–	> 100 µM	–	–	> 100 µM	–	> 100 µM	> 100 µM
CCCCc1cc(O)ccc1O	18.7 µM	> 100 µM	11.5 µM	45.4 µM	2.56 µM	6.77 µM	16.4 µM	> 100 µM	27.7 µM	> 100 µM	30 µM	> 100 µM	28.2 µM	> 100 µM	22 µM	15.6 µM	28.9 µM	74.6 µM	> 100 µM	62.1 µM
Cc1cc(O)cc(C)c1/C=C/c1cncc(C(=O)N(C)C)c1	> 25 µM	> 25 µM	> 25 µM	> 25 µM	> 25 µM	> 25 µM	> 25 µM	> 25 µM	> 25 µM	> 25 µM	> 25 µM	> 25 µM	> 25 µM	> 25 µM	> 25 µM	> 25 µM	> 25 µM	> 25 µM	> 25 µM	> 25 µM
O=C(O)C(Cc1ccc(O)c([N+](=O)[O-])c1)N1C(=O)c2ccccc2C1=O (stereo not drawn)	–	> 100 µM	–	> 100 µM	–	47 µM	–	> 100 µM	–	> 100 µM	–	> 100 µM	–	> 100 µM	–	–	> 100 µM	–	> 100 µM	> 100 µM
O=C(N/N=C/c1ccc(F)cc1)c1[nH]c2ccc(I)cc2c1-c1ccccc1	1.63 µM	> 100 µM	0.338 µM	1.34 µM	0.259 µM	0.824 µM	0.385 µM	2.11 µM	0.324 µM	> 100 µM	3.49 µM	> 100 µM	0.39 µM	> 58.3 µM	0.162 µM	0.719 µM	> 100 µM	0.482 µM	1.7 µM	0.348 µM
Nc1ncnc2c1ncn2C1OC(C(=O)O)C(O)C1O (stereo not drawn)	–	> 100 µM	–	> 100 µM	–	> 100 µM	–	> 100 µM	–	> 100 µM	–	> 100 µM	–	> 100 µM	–	–	> 100 µM	–	> 100 µM	> 100 µM
OC1CCC(C2C3CCCCC3C3CCCCC3C2C2CCC(O)CC2)CC1 (stereo not drawn)	–	> 100 µM	–	75.5 µM	–	62.2 µM	–	15.5 µM	–	31.2 µM	–	> 100 µM	–	6.14 µM	–	–	7.48 µM	–	–	24.6 µM
CCC(=O)N1C/C(=C/c2ccc(OC)cc2)C(=O)/C(=C/c2ccc(OC)cc2)C1	1.78 µM	3.51 µM	1.62 µM	3.1 µM	2.98 µM	53.1 µM	1.38 µM	2.85 µM	1.6 µM	3.01 µM	1.86 µM	3.75 µM	2.03 µM	5.31 µM	1.23 µM	1.8 µM	3.43 µM	1.99 µM	3.65 µM	4.42 µM
CC[C@@]1(OC(=O)CCC(=O)O)C(=O)OCc2c1cc1n(c2=O)Cc2cc3ccccc3nc2-1	–	4.22 µM	–	0.238 µM	–	0.449 µM	–	3.2 µM	–	0.255 µM	–	11.9 µM	–	11.7 µM	–	–	0.424 µM	–	8.49 µM	3.22 µM
CCc1ccc(C2=C(O)C(=O)C(c3ccc(CC)cc3)=C(O)C2=O)cc1	2.28 µM	9.79 µM	1.8 µM	4.45 µM	2.6 µM	6.24 µM	1.69 µM	4.04 µM	1.64 µM	3.63 µM	1.61 µM	5.88 µM	2.23 µM	7.5 µM	1.89 µM	2.01 µM	6.28 µM	1.69 µM	5.36 µM	6.72 µM
O=c1c(OC/C(=N/O)c2ccccc2)c(-c2ccccc2)oc2ccccc12	11.2 µM	28.7 µM	12.5 µM	28 µM	12.6 µM	> 50 µM	10.6 µM	24.6 µM	9.2 µM	25.2 µM	22.3 µM	> 50 µM	17.1 µM	> 50 µM	10.9 µM	10.5 µM	28 µM	14.8 µM	42.9 µM	28 µM
C=C(CNCCO)[C@@H]1CC[C@]2(CO)CC[C@]3(C)[C@H](CC[C@@H]4[C@@]5(C)CCC(NCCc6ccc(O)cc6)C(C)(C)[C@@H]5CC[C@]43C)[C@@H]12 (stereo partly drawn)	1.69 µM	3.19 µM	1.52 µM	2.91 µM	2 µM	4.08 µM	1.39 µM	2.92 µM	1.75 µM	3.24 µM	1.7 µM	3.29 µM	1.36 µM	2.82 µM	1.51 µM	1.69 µM	3.08 µM	0.194 µM	0.427 µM	2.9 µM
O=Nc1c2cccnc2n2nnc3ccc(Cl)cc3c12	2.06 µM	11.7 µM	3.68 µM	10.5 µM	0.272 µM	50 µM	1.54 µM	4.75 µM	3.99 µM	11.2 µM	3.6 µM	14.5 µM	0.94 µM	5.75 µM	2.65 µM	0.371 µM	2.02 µM	1.32 µM	5.07 µM	7.99 µM
COC(=O)c1ccc2c(c1)c1c(C)c3cnccc3c(C)c1n2C	0.044 µM	1.3 µM	0.075 µM	0.763 µM	0.243 µM	1.05 µM	0.0495 µM	1.89 µM	0.0416 µM	0.151 µM	0.117 µM	1.26 µM	0.0394 µM	1.38 µM	0.0585 µM	0.0297 µM	0.299 µM	0.0387 µM	0.277 µM	1.09 µM
N#CC1C(N)=NNC1c1ccc(-c2ccc(-c3nc4ccccc4o3)cc2)o1 (stereo not drawn)	45 µM	> 100 µM	–	–	57.7 µM	> 100 µM	24 µM	93.8 µM	23.9 µM	91.1 µM	38.1 µM	> 100 µM	32.3 µM	> 100 µM	36.4 µM	14.6 µM	51.7 µM	30.9 µM	> 100 µM	> 100 µM
O=S(=O)(O)c1ccc2cc(N=Nc3cc(S(=O)(=O)O)c4cccnc4c3O)ccc2c1	–	–	–	> 100 µM	–	4.97 µM	–	> 100 µM	–	> 100 µM	–	> 100 µM	–	> 100 µM	–	–	> 100 µM	–	> 100 µM	> 100 µM
CCOC(=O)/C(C1=CC(=O)C(=O)c2ccccc21)=C(/C)NCc1ccccc1	2.12 µM	5.09 µM	1.06 µM	2.65 µM	0.453 µM	2.25 µM	–	–	2.02 µM	3.91 µM	2.43 µM	6.69 µM	1.75 µM	3.6 µM	0.226 µM	2.28 µM	4.75 µM	2.01 µM	4.54 µM	0.476 µM
